The data set concerns ES cell line that constitutively over-expressed the transcription factor MyoD. The class given is cell-based. The conditions noted are these: for effect on Pax3 expression: continuous treatment during differentiation; for effect on MyoG (myogenin) expression: continuous treatment for 7 days, high or low serum; for effect on MyoG (myogenin) expression / effect on MyoG expression under low serum conditions: MyoG measured on Day 7; for effect on MyoG expression under low serum conditions: low serum (2% HS+Insulin). As to the method:
Time courses of differentiation were run for 7 days similarly to the previous growth factor withdrawal experiments. MyoD was induced at Day −1, and LIF was removed at Day 0. Cells were kept in either high serum (15% FBS) or low serum (2% HS+Insulin) media throughout the time course. Drug treatments were applied continuously at the designated concentrations for the entire duration of the time course, with daily media change. mRNA expression levels were measured by qRT-PCR. […] All measurements are relative to a DMSO control for the specific condition (i.e. low serum values are still higher than in high serum). L=lethal; drug had strong anti-survival effects so no data was collected. Error bars indicate S.E.M. (n=2).
Perturbations were made both under high and low serum conditions and were extended throughout the time course of differentiation. LY294002 is a potent broad inhibitor of phosphoinositide-3-kinases (PI3Ks), and when applied continuously to ES cells over 7 days induced a significant 2.7 fold increase in Pax3 mRNA expression (FIG. 4). This increase was observed both in high serum and low serum media. […] Myc drives cell cycle progression and growth. […] Both are indirect inhibitors of Myc activity; as yet there are no direct pharmacologic inhibitors of the Myc protein.
The effects of inhibiting cyclin-dependent kinases (kinases that are more centrally involved in cell cycle control) and MAP kinase, which very often is involved in cell cycle regulation, were also examined. Roscovitine is a broad CDK inhibitor that blocks a number of family members, including CDK1, CDK2, and CDK5. After continuous treatment throughout the 7 days of differentiation in the time course, roscovitine had no effect on Pax3 expression (FIG. 4). It also had little effect on the later expression of MyoG, either under high or low serum conditions. […] However, the MAPK inhibitor PD98059, which blocks MEK1/2, had no effect on Pax3 and induced MyoG only under low serum conditions (FIG. 4 bottom). The protein CDK inhibitor p21, which is much more specific than roscovitine, blocks CDK2 and prevents entry into S-phase. In ES cells p21 is expressed at low levels, but gradually increases during the course of ES cell differentiation (13). An mES cell line that constitutively overexpresses the p21 protein bicistronically with a mCherry tag (fused to the C-terminus with a 2A peptide) was developed. […] Thus, within the set of cell cycle inhibitors examined, stage-specific and condition-specific effects on gene expression were observed.
ES culture and differentiation. The ES cells contain MyoD (and associated puromycin resistance marker) expressed from a EF1alpha promoter (5). MyoD could be expressed once a loxP segment inserted between the promoter and transgene was excised by a cre recombinase fused to the estrogen receptor. ES cells were cultured in LIF and standard conditions containing 15% FBS, non-essential amino acids, L-glutamine, penicillin/streptomycin, and beta-mercaptoethanol. To induce MyoD, cells were treated for 24 hrs with 1 μM 4OHT (Sigma) in ES media. Reduced serum media consisted of DMEM and 2% horse serum (Invitrogen) plus 10 μg/ml insulin (to maintain cell survival)(Sigma) with sodium pyruvate and penicillin/streptomycin. During differentiation, cells were treated with 1 μg/ml puromycin continuously to select for cells which maintained MyoD expression. N2B27 components/supplements and Knock-out serum replacement were purchased from Invitrogen. LIF was used at a 1000 U/ml and Bmp4 at 10 ng/ml.
Drugs. The PI3K inhibitor LY294002, Roscovitine, the MEK1/2 inhibitor PD98059, and 10058-F4 were purchased from Sigma. The E2F inhibitor HLM006474 was purchased from Millipore. PD0332991 was purchased from SelleckChem. JQ1 was purchased from ApexBio.
RNA isolation and RT-PCR. RNA was isolated using RNAeasy plus kit (Qiagen). Reverse transcription was performed using iScript™ cDNA synthesis (Bio-rad). […]

Setting [1] is: Pax3 measured on Day 3, relative to DMSO control.

With `CCc1ccc(/C=C2/SC(=S)NC2=O)cc1` [10058-F4], the “effect on MyoG (myogenin) expression” value was “suppressive effects”. Also, the “effect on Pax3 expression” value under setting [1] is recorded as “suppressive effects”.

`CCOc1ccc(C(Nc2ccccn2)c2ccc3ccc(C)nc3c2O)cc1C` (stereo not shown) [HLM006474]: the “effect on MyoG (myogenin) expression” value is “suppressed MyoG expression”. The “effect on Pax3 expression” value under setting [1] was “induced Pax3”.

In the case of `Cc1sc2c(c1C)C(c1ccc(Cl)cc1)=N[C@@H](CC(=O)OC(C)(C)C)c1nnc(C)n1-2` [JQ1], the “effect on MyoG (myogenin) expression” value was “later suppression of MyoG expression”. Further, under setting [1], the “effect on Pax3 expression” value is on record as “an increase in Pax3 early expression”.

`O=c1cc(N2CCOCC2)oc2c(-c3ccccc3)cccc12` [LY294002]: the “cell survival on continuing treatment” value was “cell death”. In addition, the “increase in Pax3 mRNA expression” value (applied continuously over 7 days, observed both in high serum and low serum media, relative to DMSO control, Pax3 measured on Day 3) worked out at 2.7 fold.

With `COc1cccc(-c2cc(=O)c3ccccc3o2)c1N` [PD98059], the “effect on MyoG expression under low serum conditions” value is on record as “induced MyoG”. Further, the “effect on Pax3 expression” value under setting [1] was “no effect”.

On to `CC(=O)c1c(C)c2cnc(Nc3ccc(N4CCNCC4)cn3)nc2n(C2CCCC2)c1=O` [PD0332991], for which the “effect on MyoG (myogenin) expression” value was “lack of effect”. Also, the “effect on Pax3 expression” value under setting [1] was “lack of effect”.

Regarding `CC[C@H](CO)Nc1nc(NCc2ccccc2)c2ncn(C(C)C)c2n1` [roscovitine, Roscovitine], the “effect on MyoG (myogenin) expression” value is “little effect”. The “effect on Pax3 expression” value under setting [1] is “no effect”.

B1: p21: protein CDK inhibitor, blocks CDK2; constitutively overexpressed in an mES cell line with a mCherry tag (protein, UniProt P39689 2-159, looked up)
Cyclin-dependent kinase …: SNPGDVRPVPHRSKVCRCLFGPVDSEQLRRDCDALMAGCLQEARERWNFDFVTETPLEGNFVWERVRSLGLPKVYLSPGSRSRDDLGGDKRPSTSSALLQGPAPEDHVALSLSCTLVSERPEDSPGGPGTSQGRKRRQTSLTDFYHSKRRLVFCKRKP
modifications: mCherry tag
Turning to B1, the “effect on MyoG expression under low serum conditions” value is “upregulated MyoG”. For the same molecule, under setting [1], the “effect on Pax3 expression” value is given as “no effect”.

(Values after patent US10767162B2, “Methods for differentiation” (PRESIDENT AND FELLOWS OF HARVARD COLLEGE, priority 2014, dated 2020).)
